Test results from patent publication US10294202B2, “Pyrrolidinones as herbicides” (FMC Corporation, priority 2013, dated 2019).

Experiments:
barnyardgrass [1] = assay: Test A pre-/postemergence herbicide test; type: in vivo, Echinochloa crus-galli; conditions: for Barnyardgrass plant response rating: Preemergence, visual rating on 0 to 100 scale (0 no effect, 100 complete control)
Method in brief: (§1)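 Visual injury ratings, 0 = no effect, 100 = complete control, taken ~10 days after treatment against untreated greenhouse controls. Preemergence: directed soil spray onto seeded loam/sand pots. Postemergence: spray onto plants at one- to two-leaf stage, 2–10 cm tall.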

crabgrass, large = assay: Test A pre-/postemergence herbicide test; type: in vivo, Digitaria sanguinalis; conditions: for Crabgrass, Large plant response rating: Preemergence, visual rating on 0 to 100 scale (0 no effect, 100 complete control)
Method in brief: as §1

giant foxtail = assay: Test A pre-/postemergence herbicide test; type: in vivo, Setaria faberii; conditions: for Foxtail, Giant plant response rating: Preemergence, visual rating on 0 to 100 scale (0 no effect, 100 complete control)
Method in brief: as §1

morningglory = assay: Test A pre-/postemergence herbicide test; type: in vivo, Ipomoea spp.; conditions: for Morningglory plant response rating: Preemergence, visual rating on 0 to 100 scale (0 no effect, 100 complete control)
Method in brief: as §1

pigweed = assay: Test A pre-/postemergence herbicide test; type: in vivo, Amaranthus retroflexus; conditions: for Pigweed plant response rating: Preemergence, visual rating on 0 to 100 scale (0 no effect, 100 complete control)
Method in brief: as §1

velvetleaf = assay: Test A pre-/postemergence herbicide test; type: in vivo, Abutilon theophrasti; conditions: for Velvetleaf plant response rating: Preemergence, visual rating on 0 to 100 scale (0 no effect, 100 complete control)
Method in brief: as §1

wheat = assay: Test A pre-/postemergence herbicide test; type: in vivo, Triticum aestivum; conditions: for Wheat plant response rating: Preemergence, visual rating on 0 to 100 scale (0 no effect, 100 complete control)
Method in brief: as §1

corn = assay: Test A pre-/postemergence herbicide test; type: in vivo, Zea mays; conditions: for Corn plant response rating: Preemergence, visual rating on 0 to 100 scale (0 no effect, 100 complete control)
Method in brief: as §1

rice = assay: Test C flooded paddy test; type: in vivo, Oryza sativa; conditions: Flood
Description: (§2) Plant species in the flooded paddy test consisted of rice (Oryza sativa), sedge, umbrella (small-flower umbrella sedge, Cyperus difformis), ducksalad (Heteranthera limosa), and barnyardgrass (Echinochloa crus-galli) grown to the 2-leaf stage for testing. At time of treatment, test pots were flooded to 3 cm above the soil surface, treated by application of test compounds directly to the paddy water, and then maintained at that water depth for the duration of the test. Treated plants and controls were maintained in a greenhouse for 13 to 15 days, after which time all species were compared to controls and visually evaluated. Plant response ratings, summarized in Table C, are based on a scale of 0 to 100 where 0 is no effect and 100 is complete control. A dash (-) response means no test result.

sedge, umbrella = assay: Test C flooded paddy test; type: in vivo, Cyperus difformis; conditions: Flood
Description: as §2

ducksalad = assay: Test C flooded paddy test; type: in vivo, Heteranthera limosa; conditions: Flood
Method in brief: (§3)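 Ratings reflect visual comparison with controls on a 0–100 scale, where 100 is complete control. Compound is dosed into standing paddy water 3 cm deep over 2-leaf-stage plants, kept in the greenhouse 13 to 15 days.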

barnyardgrass [2] = assay: Test C flooded paddy test; type: in vivo, Echinochloa crus-galli; conditions: Flood
Method in brief: as §3

[3] = Postemergence, 125 g ai/ha, 0 to 100 scale, 0 no effect, 100 complete control
[4] = Postemergence, 500 g ai/ha, 0 to 100 scale (0 no effect, 100 complete control)
[5] = preemergence, 500 g ai/ha, 0 to 100 scale (0 no effect, 100 complete control)
[6] = preemergence, 500 g ai/ha, 0 to 100 scale
[7] = 31 g ai/ha, scale of 0 to 100 where 0 is no effect and 100 is complete control, 13 to 15 days
[8] = 62 g ai/ha, scale of 0 to 100 where 0 is no effect and 100 is complete control, 13 to 15 days
[9] = 125 g ai/ha, scale of 0 to 100 where 0 is no effect and 100 is complete control, 13 to 15 days

CC1NC(=O)C(C(=O)Nc2ccccc2C(F)(F)F)C1c1ccc(F)c(F)c1 (mixture of isomers) [Compound 10]
20: Plant response rating, Crabgrass, Large (crabgrass, large; [3])
60: Plant response rating, Crabgrass, Large (crabgrass, large; [4]) | Foxtail, Giant plant response rating (giant foxtail; 125 g ai/ha)
0: Plant response rating, Barnyardgrass (barnyardgrass [1]; [3]) | Barnyardgrass plant response rating (barnyardgrass [1]; 125 g ai/ha) | Plant response rating, Foxtail, Giant (giant foxtail; [3]) | Plant response rating, Morningglory (morningglory; [3]) | Plant response rating, Morningglory (morningglory; [4]) | Morningglory plant response rating (morningglory; 125 g ai/ha) | Plant response rating, Morningglory (morningglory; [6]) | Plant response rating, Pigweed (pigweed; [3]) | Plant response rating, Pigweed (pigweed; [4]) | Pigweed plant response rating (pigweed; 125 g ai/ha) | Plant response rating, Pigweed (pigweed; [6]) | Plant response rating, Velvetleaf (velvetleaf; [3]) | Plant response rating, Velvetleaf (velvetleaf; [4]) | Velvetleaf plant response rating (velvetleaf; 125 g ai/ha) | Plant response rating, Velvetleaf (velvetleaf; [6]) | Plant response rating, Wheat (wheat; [3]) | Plant response rating, Wheat (wheat; [4]) | Wheat plant response rating (wheat; 125 g ai/ha) | Plant response rating, Wheat (wheat; [6]) | Plant response rating, Corn (corn; [3]) | Plant response rating, Corn (corn; [4]) | Corn plant response rating (corn; 125 g ai/ha) | Plant response rating, Corn (corn; [6]) | Plant response rating, Rice (rice; [7]) | Plant response rating, Rice (rice; [8]) | Plant response rating, Rice (rice; [9]) | Plant response rating, Rice (rice; 250 g ai/ha, scale 0 to 100) | Plant response rating, Sedge, Umbrella (sedge, umbrella; [7]) | Plant response rating, Sedge, Umbrella (sedge, umbrella; [8]) | Plant response rating, Sedge, Umbrella (sedge, umbrella; [9]) | Plant response rating, Sedge, Umbrella (sedge, umbrella; 250 g ai/ha, scale 0 to 100) | Plant response rating, Ducksalad (ducksalad; [7]) | Plant response rating, Ducksalad (ducksalad; [8]) | Plant response rating, Ducksalad (ducksalad; [9]) | Plant response rating, Ducksalad (ducksalad; 250 g ai/ha, scale 0 to 100) | Plant response rating, Barnyardgrass (barnyardgrass [2]; [7]) | Plant response rating, Barnyardgrass (barnyardgrass [2]; [8]) | Plant response rating, Barnyardgrass (barnyardgrass [2]; [9]) | Plant response rating, Barnyardgrass (barnyardgrass [2]; 250 g ai/ha, scale 0 to 100)
30: Plant response rating, Foxtail, Giant (giant foxtail; [4])
40: Plant response rating, Barnyardgrass (barnyardgrass [1]; [4]) | Plant response rating, Barnyardgrass (barnyardgrass [1]; [5])
90: Crabgrass, Large plant response rating (crabgrass, large; 125 g ai/ha) | Plant response rating, Crabgrass, Large (crabgrass, large; [6]) | Plant response rating, Foxtail, Giant (giant foxtail; [6])

O=C1NCC(c2cccc(F)c2)C1C(=O)Nc1ccccc1F (racemic) [Compound 1]
90: Plant response rating, Barnyardgrass (barnyardgrass [1]; [5]) | Crabgrass, Large plant response rating (crabgrass, large; 125 g ai/ha) | Plant response rating, Crabgrass, Large (crabgrass, large; [6]) | Plant response rating, Foxtail, Giant (giant foxtail; [6])
60: Plant response rating, Foxtail, Giant (giant foxtail; [4])
50: Plant response rating, Barnyardgrass (barnyardgrass [1]; [3])
70: Foxtail, Giant plant response rating (giant foxtail; 125 g ai/ha)
20: Plant response rating, Foxtail, Giant (giant foxtail; [3]) | Plant response rating, Corn (corn; [6])
30: Barnyardgrass plant response rating (barnyardgrass [1]; 125 g ai/ha) | Plant response rating, Crabgrass, Large (crabgrass, large; [3])
0: Plant response rating, Morningglory (morningglory; [4]) | Morningglory plant response rating (morningglory; 125 g ai/ha) | Plant response rating, Morningglory (morningglory; [6]) | Plant response rating, Pigweed (pigweed; [4]) | Pigweed plant response rating (pigweed; 125 g ai/ha) | Plant response rating, Pigweed (pigweed; [6]) | Plant response rating, Velvetleaf (velvetleaf; [4]) | Velvetleaf plant response rating (velvetleaf; 125 g ai/ha) | Plant response rating, Velvetleaf (velvetleaf; [6]) | Plant response rating, Wheat (wheat; [4]) | Wheat plant response rating (wheat; 125 g ai/ha) | Plant response rating, Wheat (wheat; [6]) | Plant response rating, Corn (corn; [3]) | Plant response rating, Corn (corn; [4]) | Corn plant response rating (corn; 125 g ai/ha) | Plant response rating, Rice (rice; [7]) | Plant response rating, Rice (rice; [8]) | Plant response rating, Rice (rice; [9]) | Plant response rating, Rice (rice; 250 g ai/ha, scale 0 to 100) | Plant response rating, Sedge, Umbrella (sedge, umbrella; [7]) | Plant response rating, Sedge, Umbrella (sedge, umbrella; [8]) | Plant response rating, Sedge, Umbrella (sedge, umbrella; [9]) | Plant response rating, Sedge, Umbrella (sedge, umbrella; 250 g ai/ha, scale 0 to 100) | Plant response rating, Ducksalad (ducksalad; [7]) | Plant response rating, Ducksalad (ducksalad; [8]) | Plant response rating, Ducksalad (ducksalad; [9]) | Plant response rating, Ducksalad (ducksalad; 250 g ai/ha, scale 0 to 100) | Plant response rating, Barnyardgrass (barnyardgrass [2]; [7]) | Plant response rating, Barnyardgrass (barnyardgrass [2]; [8]) | Plant response rating, Barnyardgrass (barnyardgrass [2]; [9]) | Plant response rating, Barnyardgrass (barnyardgrass [2]; 250 g ai/ha, scale 0 to 100)
80: Plant response rating, Barnyardgrass (barnyardgrass [1]; [4]) | Plant response rating, Crabgrass, Large (crabgrass, large; [4])

O=C1NCC(c2cccc(C(F)(F)F)c2)C1C(=O)Nc1ccccc1C(F)(F)F (racemic) [Compound 4]
85: Plant response rating, Ducksalad (ducksalad; 250 g ai/ha, scale 0 to 100)
20: Plant response rating, Ducksalad (ducksalad; [7])
60: Plant response rating, Barnyardgrass (barnyardgrass [1]; [3]) | Barnyardgrass plant response rating (barnyardgrass [1]; 125 g ai/ha) | Plant response rating, Crabgrass, Large (crabgrass, large; [3]) | Plant response rating, Foxtail, Giant (giant foxtail; [3]) | Wheat plant response rating (wheat; 125 g ai/ha)
30: Plant response rating, Morningglory (morningglory; [4]) | Plant response rating, Ducksalad (ducksalad; [8]) | Plant response rating, Barnyardgrass (barnyardgrass [2]; [9])
90: Crabgrass, Large plant response rating (crabgrass, large; 125 g ai/ha) | Plant response rating, Crabgrass, Large (crabgrass, large; [6]) | Plant response rating, Foxtail, Giant (giant foxtail; [6])
40: Plant response rating, Barnyardgrass (barnyardgrass [2]; 250 g ai/ha, scale 0 to 100)
80: Plant response rating, Barnyardgrass (barnyardgrass [1]; [5]) | Plant response rating, Crabgrass, Large (crabgrass, large; [4]) | Foxtail, Giant plant response rating (giant foxtail; 125 g ai/ha) | Plant response rating, Ducksalad (ducksalad; [9])
50: Plant response rating, Pigweed (pigweed; [4]) | Plant response rating, Wheat (wheat; [4]) | Plant response rating, Corn (corn; [4])
70: Plant response rating, Barnyardgrass (barnyardgrass [1]; [4]) | Plant response rating, Foxtail, Giant (giant foxtail; [4]) | Plant response rating, Wheat (wheat; [6])
0: Morningglory plant response rating (morningglory; 125 g ai/ha) | Plant response rating, Morningglory (morningglory; [6]) | Pigweed plant response rating (pigweed; 125 g ai/ha) | Plant response rating, Pigweed (pigweed; [6]) | Plant response rating, Velvetleaf (velvetleaf; [4]) | Velvetleaf plant response rating (velvetleaf; 125 g ai/ha) | Plant response rating, Velvetleaf (velvetleaf; [6]) | Plant response rating, Corn (corn; [3]) | Corn plant response rating (corn; 125 g ai/ha) | Plant response rating, Corn (corn; [6]) | Plant response rating, Rice (rice; [7]) | Plant response rating, Rice (rice; [8]) | Plant response rating, Rice (rice; [9]) | Plant response rating, Rice (rice; 250 g ai/ha, scale 0 to 100) | Plant response rating, Sedge, Umbrella (sedge, umbrella; [7]) | Plant response rating, Sedge, Umbrella (sedge, umbrella; [8]) | Plant response rating, Sedge, Umbrella (sedge, umbrella; [9]) | Plant response rating, Sedge, Umbrella (sedge, umbrella; 250 g ai/ha, scale 0 to 100) | Plant response rating, Barnyardgrass (barnyardgrass [2]; [7]) | Plant response rating, Barnyardgrass (barnyardgrass [2]; [8])
